Test results: patent US6787541B1, “Thieno-and furopyrimidine derivatives as A2A-receptor antagonists” (Vernalis Research Limited, priority 1999, dated 2004)

Columns and labels:
[1] = target: T1, human adenosine A2A receptors expressed in HEK-293 cells (Homo sapiens, UniProt P29274); experiment: Binding affinities at hA2A receptors, displacement of [3H]-CGS 21680
T1 construct: expressed in transfected cells; host or cells: HEK-293 cells

[2] = tested on: haloperidol-induced deficits in locomotor activity in mice; experiment: Haloperidol-induced hypolocomotion model; type: in vivo; conditions: intraperitoneally at a dose of 10 mg/kg
Description: Haloperidol-induced Hypolocomotion Model
This approach is also considered a valid method for screening drugs with potential antiparkinsonian effects. Thus, the ability of novel adenosine antagonists to block haloperidol-induced deficits in locomotor activity in mice can be used to assess both in vivo and potential antiparkinsonian efficacy.
Female TO mice (25-30 g) obtained from TUCK, UK, are used for all experiments. Animals are housed in groups of 8 [cage size—40 (width)×40 (length)×20 (height)cm] under 12 hr light/dark cycle (lights on 08:00 hr), in a temperature (20±2° C.) and humidity (55±15%) controlled environment. Animals have free access to food and water, and are allowed at least 7 days to acclimatize after delivery before experimental use.
Liquid injectable haloperidol (1 ml Serenance ampoules from Baker Norton, Harlow, Essex, each containing haloperidol BP 5 mg, batch # P424) are diluted to a final concentration of 0.02 mg/ml using saline. Test compounds are typically prepared as aqueous suspensions in 8% Tween. […]
1.5 hours before testing, mice are administered 0.2 mg/kg haloperidol, a dose that reduces baseline locomotor activity by at least 50%. […] Horizontal locomotor activity is determined by placing the cages within a frame containing a 3×6 array of photocells linked to a computer, which tabulates beam breaks. […]

[3] = tested on: cataleptic responses; conditions: cited from earlier work
[4] = tested on: Parkinsonian patients; conditions: cited from earlier work

T1 sequence (P29274 whole entry): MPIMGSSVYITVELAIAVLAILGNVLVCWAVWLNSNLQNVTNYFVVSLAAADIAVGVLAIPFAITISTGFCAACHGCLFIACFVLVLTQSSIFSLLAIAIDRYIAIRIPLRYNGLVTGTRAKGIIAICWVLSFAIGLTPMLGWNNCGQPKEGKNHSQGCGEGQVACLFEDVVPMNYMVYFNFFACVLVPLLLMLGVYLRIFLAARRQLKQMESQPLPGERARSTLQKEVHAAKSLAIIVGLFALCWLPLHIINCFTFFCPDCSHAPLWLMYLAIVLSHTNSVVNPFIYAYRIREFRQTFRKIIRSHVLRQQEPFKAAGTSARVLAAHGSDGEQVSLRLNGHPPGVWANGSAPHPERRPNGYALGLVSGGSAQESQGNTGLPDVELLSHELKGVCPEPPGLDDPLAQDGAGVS

Row | SMILES | Ki [1] [nM] | melting point | other results
1 | O=C(c1ccccc1)c1nc(Cl)nc2ccsc12 [Example 28, 2-Chlorothieno[3,2-d]pyrimidin-4-yl phenylmethanone] | 865 | 162.2 to 163.1 °C | –
2 | Cc1ccc(C(=O)c2nc(C(F)(F)F)nc3ccsc23)cc1 [Example 29, 4-Methylphenyl 2-trifluoromethylthieno[3,2-d]pyrimidin-4-ylmethanone] | 539 | 127 to 129 °C | –
3 | CCc1nc(C(C#N)c2ccccn2)c2sccc2n1 (stereo not drawn) [Example 34, 2-Ethyl-α-(2-pyridyl)thieno[3,2-d]pyrimidine-4-acetonitrile] | 245 | 240 to 242 °C | –
4 | COc1nc(C(=O)c2cccs2)c2scc(C)c2n1 [Example 37, 2-Methoxy-7-methylthieno[3,2-d]pyrimidin-4-yl 2-thienylmethanone] | 361 | 144 to 146 °C | –
5 | CSc1nc(C(=O)c2cccs2)c2scc(C)c2n1 [Example 39, 7-Methyl-2-methylthiothieno[3,2-d]pyrimidin-4-yl 2-thienylmethanone] | 575 | 144 to 166 °C | –
6 | CN(C)c1nc(C(=O)c2ccccc2)c2sccc2n1 [Example 40, 2-Dimethylaminothieno[3,2-d]pyrimidin-4-yl phenylmethanone] | 295 | 116.5 to 117 °C | –
7 | Cc1ccsc1C(=O)c1nc(C(F)(F)F)nc2ccsc12 [Example 42, 3-Methyl-2-thienyl 2-trifluoromethylthieno[3,2-d]pyrimidin-4-ylmethanone] | 26 | 201 to 202 °C | –
8 | O=C(c1cccs1)c1nc(Cl)nc2ccsc12 [Example 44, 2-Chlorothieno[3,2-d]pyrimidin-4-yl 2-thienylmethanone] | 91 | 190.5 to 191 °C | –
9 | O=C(c1ccc(Br)s1)c1nc(C(F)(F)F)nc2ccsc12 [Example 46, 5-Bromo-2-thienyl 2-trifluoromethylthieno[3,2-d]pyrimidin-4-ylmethanone] | 101 | 180 to 182 °C | –
10 | CSc1nc(C(=O)c2cccs2)c2sccc2n1 [Example 48, 2-Methylthiothieno[3,2-d]pyrimidin-4-yl 2-thienylmethanone] | 151 | 189.7 to 190.6 °C | –
11 | CC(C)(C)OC(=O)NCCNc1nc(C(=O)c2cccs2)c2sccc2n1 [Example 54, Tert-butyl (2-(4-(2-thienylcarbonyl)thieno[3,2-d]pyrimidin-2-yl)aminoethyl)carbamate] | 36 | 199.9 to 200.7 °C | –
12 | CN(C)c1ccc(C(=O)c2nc(C(F)(F)F)nc3ccsc23)s1 [Example 56, 5-Dimethylamino-2-thienyl 2-trifluoromethylthieno[3,2-d]pyrimidin-4-ylmethanone] | 309 | 188 to 191 °C | –
13 | O=C(c1cc(Br)cs1)c1nc(C(F)(F)F)nc2ccsc12 [Example 57, 4-Bromo-2-thienyl 2-trifluoromethylthieno[3,2-d]pyrimidin-4-ylmethanone] | 800 | 178 to 179 °C | –
14 | C=CCNc1nc(C(=O)c2cccs2)c2sccc2n1 [Example 59, 2-Allylaminothieno[3,2-d]pyrimidin-4-yl 2-thienylmethanone] | 18 | 142.1 to 142.9 °C | –
15 | CCCc1nc(C(C#N)c2ccccn2)c2sccc2n1 (stereo not drawn) [Example 60, 2-n-Propyl-α-(2-pyridyl)thieno[3,2-d]pyrmidine-4-acetonitrile] | 237 | 185 to 187 °C | –
16 | CC(C)Nc1nc(C(=O)c2cccs2)c2sccc2n1 [Example 61, 2-Isopropylaminothieno[3,2-d]pyrimidin-4-yl 2-thienylmethanone] | 21 | 134.8 to 135.6 °C | –

Row | SMILES | Ki [1] [nM] | melting point | other results
17 | CCCc1nc(C(=O)c2cccs2)c2sccc2n1 [Example 63, 2-n-Propylthieno[3,2-d]pyrimidin-4-yl 2-thienylmethanone] | 37 | 122 to 125 °C | –
18 | Cc1nc(C(C#N)c2ccccn2)c2sccc2n1 (stereo not drawn) [Example 64, 2-Methyl-α-(2-pyridyl)thieno[3,2-d]pyrimidine-4-acetonitrile] | 529 | 266 to 269 °C | –
19 | COCCNc1nc(C(=O)c2cccs2)c2sccc2n1 [Example 65, 2-(2-Methoxyethylamino)thieno[3,2-d]pyrimidin-4-yl 2-thienylmethanone] | 21 | 135.6 to 135.9 °C | –
20 | COc1ccc(C(=O)c2nc(C(F)(F)F)nc3ccsc23)s1 [Example 68, 5-Methoxy-2-thienyl 2-trifluoromethylthieno[3,2-d]pyrimidin-4-ylmethanone] | 105 | 160 to 162 °C | –
21 | O=C(c1ccccc1)c1nc(NCCO)nc2ccsc12 [Example 72, 2-(2-Hydroxyethylamino)thieno[3,2-d]pyrimidin-4-yl phenylmethanone] | 126 | 114.1 to 114.9 °C | –
22 | CCOc1nc(C(=O)c2cccs2)c2sccc2n1 [Example 73, 2-Ethoxythieno[3,2-d]pyrimidin-4-yl 2-thienylmethanone] | 48 | 164.6 to 165.4 °C | –
23 | Cc1cc(C(=O)c2nc(C(F)(F)F)nc3ccsc23)oc1C [Example 74, 4,5-Dimethyl-2-furyl 2-trifluoromethylthieno[3,2-d]pyrimidin-4-ylmethanone] | 90 | 185 to 186 °C | –
24 | CCOC(=O)CCCNc1nc(C(=O)c2cccs2)c2sccc2n1 [Example 76, Ethyl 4-(4-(2-thienylcarbonyl)thieno[3,2-d]pyrimidin-2-ylamino)butanoate] | 8 | 143.3 to 143.7 °C | –
25 | O=C(c1cccs1)c1nc(N2CCOCC2)nc2ccsc12 [Example 77, 2-(4-Morpholinyl)thieno[3,2-d]pyrimidin-4-yl 2-thienylmethanone] | 97 | 199.9 to 200.5 °C | –
26 | O=C(c1cccs1)c1nc(NCCN2CCOCC2)nc2ccsc12 [Example 78, 2-(2-(4-Morpholinyl)ethylamino)thieno[3,2-d]pyrimidin-4-yl 2-thienylmethanone] | 46 | > 120 °C (dec.) | –
27 | O=C(c1cccs1)c1nc(N2CCC(O)CC2)nc2ccsc12 [Example 86, 2-(4-Hydroxypiperidin-1-yl)thieno[3,2-d]pyrimidin-4-yl 2-thienylmethanone] | – | – | reversal of haloperidol-induced hypolocomotion [2]: significantly reversed
28 | O=C(c1cccs1)c1nc(NCc2ccccn2)nc2ccsc12 [Example 95, 2-(2-Pyridylmethylamino)thieno[3,2-d]pyrimidin-4-yl 2-thienylmethanone] | 8 | 178.6 to 179.3 °C | –
29 | Cc1ccsc1C(=O)c1nc(NCCO)nc2ccsc12 [Example 118, 2-(2-Hydroxyethylamino)thieno[3,2-d]pyrimidin-4-yl 3-methyl-2-thienylmethanone] | 7 | 194.5 to 195 °C | –
30 | CCCn1c(=O)c2c(nc(/C=C/c3ccc(OC)c(OC)c3)n2C)n(CCC)c1=O [KF 17837, (E)-8-(3,4-dimethoxystyryl)-1,3-dipropyl-7-methylxanthine] | – | – | anticataleptic effects of a subthreshold dose of L-DOPA plus benserazide ([3]; in vivo): potentiated; catalepsy induced by haloperidol and reserpine ([3]; in vivo): reduced; cataleptic responses induced by intracerebroventricular administration of CGS 21680 ([3]; oral administration): significantly ameliorated
31 | Cn1c(=O)c2[nH]cnc2n(C)c1=O [theophylline, 1,3-dimethylxanthine] | – | – | mean objective disability scores ([4]; 15 Parkinsonian patients, up to 12 weeks, 150 mg/day oral): significant improvements; patients reporting moderate or marked subjective improvement ([4]; of 15 Parkinsonian patients, up to 12 weeks, 150 mg/day oral): 11; serum theophylline levels ([4]; slow release oral theophylline preparation 150 mg/day, after one week): 4.44 mg/L
